Test results published in patent US12085575B2, “Compositions and methods for detecting proteinopathies” (BOARD OF SUPERVISORS OF LOUISIANA STATE UNIVERSITY AND …, priority 2011, dated 2024).
Residues, ends and D or L forms follow the SMILES beside them. *: point of attachment. Cbz = O=C(OCc1ccccc1)*

System: Mfn2
Assay: Mfn2 modification and degradation in A-T/LV shRNA cells treated with mitochondrial depolarizing agents
Assay type: cell-based, human
Details: ISG15-silenced A-T cells; CCCP 25 uM with MG132 or Bafl 100 nM, 24 hr
Experimental: Immunoblotting Analysis of Mitochondrial Proteins—Mitochondria were isolated from A-T/LV control and ISG15 shRNA cells using the Miochondrial Isolation Kit (Thermo Scientific Company, 89874). The Dounce homogenization protocol described by the manufacturer was used to isolate mitochondria from cells. Mitochondrial pellets were resuspended in lysis buffer containing 50 mM Tris pH 7.5 and 4% (v/v) SDS. Samples were homogenized and boiled for 10 min. Lysates containing equal protein were then mixed with 6× Laemmli SDS sample buffer (3× final concentration). Samples were boiled again and mitochondrial proteins were analyzed by SDS-PAGE. Immunoblotting analyses using either anti-ISG15 (raised against human ISG15) (20), anti-ubiquitin (gift from Dr. Arthur Haas, at LSUHSC—New Orleans), or anti-mitofusin 2 (Abcam, ab88569) antibodies were carried out using the ECL Western procedure (Pierce, 34076) and the BioRad VersaDoc Imaging System (BioRad). Immunoblotting Analysis of HA Polyubiquitylated Proteins in Cells: Cells were transfected with HA-ubiquitin using the PolyFect transfection reagent (Qiagen, 301105). Twenty four hours after transfection, mitochondria were isolated as described above. Mitochondrial lysis, SDS-PAGE, and immunoblotting analysis to detect HA-ubiquitin conjugated proteins using anti-HA antibodies were carried out as described above. Immunoblotting Analysis of Mfn2 in Cells: Cells were lysed in lysis buffer containing 50 mM Tris-HCl, pH 7.5, 2% SDS, and protease inhibitor cocktail. Lysates were sonicated, boiled, and cleared by centrifugation. Lysates containing equal protein were then mixed with 6× Laemmli SDS sample buffer (3× final concentration). Samples were boiled again and proteins were separated by 15% SDS-PAGE. Immunoblotting analysis was carried out using anti-Mfn2 antibodies (Abcam) as described above. Intensity of the Mfn2 bands was quantitated using BioRad Quantity One software. Statistical analysis—Statistical analysis was carried out using GraphPad software.
Many outer mitochondrial membrane (OMM) proteins are ubiquitylated and degraded via the 26S proteasome prior to mitophagy in cells treated with the mitochondrial depolarizing agents (28,29). To test whether ISG15 inhibits polyubiquitylation of OMM proteins, we assessed the fate of Mfn2, an OMM protein and proteasome substrate, in A-T/LV-control and A-T/LV-ISG15-silenced cells treated with two different mitochondrial depolarizing agents, valinomycin and carbonylcyanide m-chlorophenylhydrazone (CCCP). Consistent with the literature reports (29,35,36), we observed a ladder of high molecular weight anti-Mfn2 cross-reactive bands above the 86 kDa Mfn2 protein band that is reminiscent of polyubiquitylation, in both ISG15-silenced and ISG15 overexpressing A-T cells (FIGS. 34 A and B, left panels). The endogenous level of these high molecular weight Mfn2 cross-reactive bands was remarkably higher in ISG15-silenced as compared to the ISG15-overexpressing A-T cells in the absence of any drugs (FIGS. 34A and B, first panels, compare lanes 1 and 4). […] In contrast, the level of these Mfn2 cross-reactive high molecular weight bands decreased under the same drug treatment conditions in ISG15-silenced A-T cells (FIGS. 34A and B, first panels, lanes 4-6, and the accompanying bar graph in the second panel for quantitation). […] The bar graphs in FIGS. 34A and B, third panels, show mean values of the ratio between free Mfn2 (86 kDa band) and actin proteins (±SEM) in CCCP-treated A-T/LV-control and ISG15 shRNA cells measured from eight independent experiments, and valinomycin-treated A-T/LV-control and ISG15 shRNA cells measured from three independent experiments respectively.

SMILES | free Mfn2 degradation in CCCP-treated cells
CO/C1=C\C(C)=C\[C@@H](C)[C@@H](O)[C@@H](C)C/C(C)=C/C=C/[C@H](OC)[C@@H]([C@@H](C)[C@@H](O)[C@H](C)[C@@]2(O)C[C@@H](O)[C@H](C)[C@@H](C(C)C)O2)OC1=O [Bafilomycin A1] | not
CC(C)C[C@@H](C=O)NC(=O)[C@H](CC(C)C)NC(=O)[C@H](CC(C)C)NC(=O)OCc1ccccc1 [MG132] (Cbz-Leu-Leu-Leu-aldehyde) | restored
